Literature values as cited in patent US20260183398A1, “RADIOLUMINESCENT NANOPARTICLES FOR RADIATION-TRIGGERED CONTROLLED RELEASE DRUGS” (Purdue Research Foundation, priority 2017, published 2026).

Key:
[1] = reported
[2] = PTX intratumorally delivered to mouse xenografts in the polymer encapsulated form
[3] = systemic chemotherapy, about 200 mg/m2

## CC(=O)O[C@H]1C(=O)[C@@]2(C)[C@H]([C@H](OC(=O)c3ccccc3)[C@]3(O)C[C@H](OC(=O)[C@H](O)[C@@H](NC(=O)c4ccccc4)c4ccccc4)C(C)=C1C3(C)C)[C@]1(OC(C)=O)CO[C@@H]1C[C@@H]2O [PTX, paclitaxel]
[1]
  in vitro IC90: ≈ 0.09 μg PTX per mg tumor
  in vitro IC90 (PTX concentration giving rise to 90% cell kill in vitro): about 90 μg/mL
[2]
  tumor elimination rate constant ket: 0,005 h^−1
[3]
  patients with dermatological side effects (skin, hair, nail): 86.8%
